Results published in patent US8188063B2, “Use of adenosine A2A modulators to treat spinal cord injury” (University of Virginia Patent Foundation, priority 2006, dated 2012).
“Also recorded” adds a separate entry of the source.

Experiments:
[1] = target: T1, recombinant mouse A3 receptors (Mus musculus, UniProt Q61618); experiment: Radioligand competition binding to recombinant mouse A3 receptor (HEK293 membranes); conditions: high affinity conformational state, means ± SEM, at least six experiments, read-out: Binding affinity (Ki) A3R
T1 construct: expressed in transfected cells
T1 sequence (Q61618 1-319): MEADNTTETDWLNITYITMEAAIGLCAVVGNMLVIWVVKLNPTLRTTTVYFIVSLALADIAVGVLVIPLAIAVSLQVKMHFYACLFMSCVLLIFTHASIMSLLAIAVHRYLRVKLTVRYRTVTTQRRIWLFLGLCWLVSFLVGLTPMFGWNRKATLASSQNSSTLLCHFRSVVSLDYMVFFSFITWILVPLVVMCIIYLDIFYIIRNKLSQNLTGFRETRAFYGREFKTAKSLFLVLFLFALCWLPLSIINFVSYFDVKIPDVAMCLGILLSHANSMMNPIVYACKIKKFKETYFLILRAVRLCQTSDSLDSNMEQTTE
Experimental: Membranes from HEK293 cells stably expressing recombinant mouse A2ARs or A3Rs were used for competition binding assays with [^125I]N6-4-amino-3-iodobenzyladenosine for the A3AR or [^125I]2-[2-(4-amino-3-iodophenyl)ethylamino]adenosine for the A2AR as described previously (Lappas et al., 2005a). Radioligand binding experiments were performed with 25 μg of HEK293 cell membrane protein in a total volume of 0,1 ml of 10 MM HEPES with 1 mM EDTA (pH 7.4) supplemented with 2 Unit/ml adenosine deaminase and 5 mM MgCl2. Nonspecific binding was measured in the presence of 100 μM NECA. The incubation time was 120 min at room temperature. Membranes were filtered on Millipore MultiScreen 96-well filtration plates and washed three times with ice-cold buffer (10 mM Tris, 1 mM MgCl2, pH 7,4) using a Brandel 96-well plate washer. The data were fit to a four-parameter logistic equation. IC50 values were determined using GraphPad Prism, and Ki values calculated (Linden, 1982).
. It is important to note that unlike human receptors, in the mouse, the selectivity of all of these agonist compounds for the A2A over the A3 receptor is limited, and the administration of these compounds to mice is expected to produce some degree of A3 receptor activation. […]. Activation of the A3 receptor may exacerbate inflammation by enhancing the degranulation of rodent mast cells (Jin et al., 1997; Ramkumar et al., 1993, Reeves et al., 1997); although tissue protection by A3 receptor activation also has been noted (Rivo et al., 2004). […]

[2] = target: T2, recombinant mouse A2A receptors (Mus musculus, UniProt Q60613); experiment: Radioligand competition binding to recombinant mouse A2A receptor (HEK293 membranes); conditions: for Ki: high affinity conformational state, recombinant mouse A2A receptor, means ± SEM, at least six experiments, read-out: Binding affinity (Ki) A2AR; for A3/A2A: ratio of Ki at mouse A3R to Ki at mouse A2AR
T2 construct: expressed in transfected cells
Experimental: Nonspecific binding was measured in the presence of 100 μM NECA. The incubation time was 120 min at room temperature. Membranes were filtered on Millipore MultiScreen 96-well filtration plates and washed three times with ice-cold buffer (10 mM Tris, 1 mM MgCl2, pH 7,4) using a Brandel 96-well plate washer. The data were fit to a four-parameter logistic equation.

[3] = tested on: contusive spinal cord injury, locomotor function; experiment: Contusive spinal cord injury, locomotor assessment (mouse BBB); conditions: FIG. 13; for protection from contusive injury in Rag1 KO mice compared to Rag1 KO vehicle: Rag1 KO mice lacking mature lymphocytes
Source text: Female C57BL/6 wild type and Rag-1 KO mice lacking mature lymphocytes between 6-18 weeks of age were purchased from Jackson Laboratory (Bar Harbor, Me.). Adenosine 2A receptor gene deletion (A2AAR −/−, A2AAR knockout) mice were age-matched to their wild types with same genomic background (C57BL/6). Food and water were provided ad libitum before and after experiments. During the experiment period, animals were housed in a pathogen-free isolation barrier region with chip bedding.
Animals were subjected to comtusive spinal cord injury protocol. Briefly, mice were anesthetized with a mixture of ketamine and xylazine and placed on a heating pad in a stereotaxic apparatus. A laminectomy was performed at T12 and two adjustable forceps were applied to the vertebra between T11 to T13 to stabilize the spinal cord. Contusive spinal cord injury (SCI) was produced with an IH device (PSI, Lexington, Ky.) at a defined force from 30 to 100 Kdynes with a dwell time of 30 msec or 60 sec. […] Injured mice were assessed on days 1, 2, 3, 4, 7, 10, 14, 21, 28, 35, and 42 after injury. Sham animals (n=10) received a laminectomy without spinal cord compression. Following SCI, bladders were expressed twice daily until return of normal reflexive bladder function.
Statistical tests were performed using GraphPad™ Prism version 5 software (GraphPad Software, Inc., San Diego, Calif.). Differences in locomotor scores between groups was analyzed by two-way analysis of variance (ANOVA) employing Bonferroni post-tests for repeated measure comparisons. A P value <0.05 was considered to be significant.

[4] = tested on: spinal cord compression injury in bone marrow chimera mice; experiment: Spinal cord compression injury in bone marrow chimera and A2AR KO mice, locomotor assessment; format: in vivo, mouse
Experimental: Female mice 7-9 weeks of age were irradiated twice with 600 Rads separated by 4 hours. Bone marrow donor mice 12 weeks of age were sacrificed by a lethal injection of sodium pentobarbital. Bone marrow cells were harvested from femurs and tibia by flushing with RPMI-1640 medium (Invitrogen Corporation, Grand Island, N.Y.) in the presence of 10% heat-inhibited fetal bovine serum (FBS). Connective tissue and debris were carefully removed by washing and centrifuging. Red blood cells were lysed by 1× ZAP-OGLOBIN® II lytic Reagent (Beckman Coulter, Miami, Fla.). Recipient mice were anesthetized intraperitoneally with a mixture of 100 mg/ml ketamine and 20 mg/ml xylazine in saline solution. An aliquot of approximately 2×10^6 cells in 200 μl RPMI-1640 with 10% FBS was injected intravenously through left or right jugular vein. BMT mice were used for experiments after 6 weeks. We have previously shown that this procedure results in efficient repopulation of BMDC cells to irradiated mice (Day et al., 2005).

[5] = target: recombinant human A2A receptors (Homo sapiens, UniProt P29274); conditions: recombinant human receptors (Rieger et al., 2001); cited from earlier work
[6] = tested on: spinal cord white matter / myelin after compression injury; experiment: Spinal cord histology and myelin quantification after compression injury; format: in vivo, mouse
Experimental: A section of spine between T10 and L1 was removed under anesthesia. The tissue was placed in 4.0% paraformaldehyde in phosphate buffered saline, pH 7.4, and rocked for 4 hours. The disc body, lamina, pedicle, spinous and transverse processes surrounding the cord were carefully removed and the cord trimmed to center the injured area in a 10 mm segment. After incubation at 4° C. overnight, tissues were washed in Dulbecco's phosphate buffered saline (PBS, pH 7.4) twice for 10 minutes, and transferred to cassettes in 70% ethanol for paraffin embedding. Five μm sections were collected at 500 μm intervals using a Leica RM2030 Rotary Microtome. Sections derived from the center of the 2 mm compression zone were stained with hematoxylin & eosin (HE) and eriochrome cyanine (EC) as described below. Slides were examined using an Olympus BX51 light microscope and photographed using an Olympus DP70 digital camera (4080×3072 pixels) with DP70-BSW-V1.2 Capture & Archiving Software.
Hematoxylin & Eosin (HE) Staining. Sections were deparaffinized at 37° C. twice each for 5 minutes in xylene, 100% ethanol, and 95% ethanol, then once for 5 minutes in 70% ethanol and twice for 5 minutes in dH2O. Slides were stained in filtered hematoxylin for 60 seconds and washed in tap water for 3 minutes, stained in Eosin Y for 30 seconds and washed in tap water for 3 minutes. After the slide was dehydrated to xylene, a coverslip was applied.
Eriochrome Cyanine (EC) Staining. The protocol for staining myelin was obtained from the NINDS Spinal Cord Injury Training Course 2004 (The Ohio State University, Columbus, Ohio) and used with minor modifications. […]
Spinal Cord Cross Sectional Area and Myelin Quantification. Total cross-sectional area was measured to determine the extent of spinal cord atrophy, Cross-sectional area stained with EC was calculated by image analysis to evaluate damage of the sagittal myelinated tracts. […] The loss in white matter of each sample was calculated as % of total area stained in respective areas of control samples.

[7] = tested on: spinal cord compression injury, locomotor function; experiment: Spinal cord compression injury, locomotor assessment (mBBB); conditions: for locomotor function (mBBB score) after spinal cord compression: wild type mice, IP from 5 min before compression, twice daily 4 days, days 1-42, FIG. 2
Experimental: Briefly, mice were anesthetized with a mixture of ketamine and xylazine and placed on a heating pad in a stereotaxic apparatus. A laminectomy was performed at T12 and two adjustable forceps were applied to the vertebra between T11 to T13 to stabilize the spinal cord. Ischemic injury was produced by gently placing a 15 gram compression rod with 1 mm×2 mm rectangular surface onto the intact durra for 5 minutes. […] Injured mice were assessed on post-SCI days 1, 4, 7, 14, 28, and 42. Sham animals received a laminectomy without spinal cord compression. Following SCI, bladders were expressed twice daily until return of normal bladder function.
Animals that were able to walk and scored greater than 14 based on rat BBB scoring criteria were further evaluated based on their ability to traverse steel bars without slipping. Mice were placed on bars 500 mm in length and 3 mm in thickness with decreasing widths: 20 mm (score 16), 15 mm (score 17), 10 mm (score 18), 7 mm (score 19), and 5 mm (score 20). […] Scores obtained from left and right hind limbs were averaged.
Statistical Analysis: Statistical analyses were conducted using SAS version 9.1 (SAS Institute Inc, Cary, N.C.). A mixed model (SAS Proc Mixed) was applied to determine the effect of drug treatment over time. Both the experimental condition (mouse genotype and/or drug) and the day were set as categorical variables. An autoregressive correlation structure was assumed for repeated measures in the entire study.

T2 sequence (Q60613 whole entry): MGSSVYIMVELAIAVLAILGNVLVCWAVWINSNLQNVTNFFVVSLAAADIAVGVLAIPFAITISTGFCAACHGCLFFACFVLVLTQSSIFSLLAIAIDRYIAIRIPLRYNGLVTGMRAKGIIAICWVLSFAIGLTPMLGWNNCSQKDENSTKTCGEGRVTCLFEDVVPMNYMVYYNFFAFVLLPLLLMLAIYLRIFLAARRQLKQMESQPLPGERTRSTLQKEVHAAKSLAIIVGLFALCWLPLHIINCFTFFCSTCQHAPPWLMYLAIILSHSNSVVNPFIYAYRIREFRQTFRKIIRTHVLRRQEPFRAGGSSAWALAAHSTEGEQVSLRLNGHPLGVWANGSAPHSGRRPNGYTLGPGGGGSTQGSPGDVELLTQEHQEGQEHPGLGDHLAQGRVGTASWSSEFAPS
Sequence of recombinant human A2A receptors (P29274 whole entry): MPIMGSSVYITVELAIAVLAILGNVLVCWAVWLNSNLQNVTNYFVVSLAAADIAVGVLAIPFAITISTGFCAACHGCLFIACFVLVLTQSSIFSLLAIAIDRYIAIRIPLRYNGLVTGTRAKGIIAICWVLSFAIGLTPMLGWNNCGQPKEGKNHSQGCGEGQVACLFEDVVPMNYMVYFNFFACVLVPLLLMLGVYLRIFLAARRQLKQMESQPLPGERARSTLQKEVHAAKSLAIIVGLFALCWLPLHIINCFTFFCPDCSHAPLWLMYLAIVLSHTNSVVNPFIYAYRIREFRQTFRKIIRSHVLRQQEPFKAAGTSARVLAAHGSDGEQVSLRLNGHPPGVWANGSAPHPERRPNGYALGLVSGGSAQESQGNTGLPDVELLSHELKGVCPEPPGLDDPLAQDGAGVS

SMILES: CCNC(=O)C1OC(n2cnc3c(N)nc(C#CCC4CCC(C(=O)OC)CC4)nc32)C(O)C1O (stereo not drawn) [ATL146e, 4-{3-[6-Amino-9-(5-ethylcarbamoyl-3,4-dihydroxy-tetrahydro-furan-2-yl)-9H-purin-2-yl]-prop-2-ynyl}cyclo-hexanecarboxylic acid methyl ester]
- Ki [1]: 3.3 ± 2 nM

SMILES: CCNC(=O)[C@H]1O[C@@H](n2cnc3c(N)nc(C#CCC4CCN(C(=O)OC)CC4)nc32)[C@H](O)[C@@H]1O [ATL202, 4-{3-[6-amino-9-(5-ethyl-carbamoyl-3,4-dihydroxy-tetrahydro-furan-2-yl)-9H-purin-2-yl]-prop-2-ynyl}-piperidine-1-carboxylic acid methyl ester]
- Ki [2]: 1.5 ± 0.55 nM
- Ki [1]: 3.7 ± 0.4 nM

SMILES: CCNC(=O)C1OC(n2cnc3c(N)nc(C#CCC4CCN(C(=O)OCC(C)C)CC4)nc32)C(O)C1O (stereo not drawn) [ATL210, 4-{3-[6-amino-9-(5-ethylcarbamoyl-3,4-dihydroxy-tetrahydro-furan-2-yl)-9H-purin-2-yl]-prop-2-ynyl}-piperidine-1-carboxylic acid isobutyl ester]
- Ki [2]: 1.04 ± 0.26 nM
- A3/A2A [2]: 5.2
- Ki [1]: 5.4 ± 0.7 nM

SMILES: COC(=O)N1CCC(CC#Cc2nc(N)c3ncn(C4OC(C(=O)NC5CC5)C(O)C4O)c3n2)CC1 (stereo not drawn) [ATL313, 4-{3-[6-amino-9-(5-cyclopropylcarbamoyl-3,4-dihydroxy-tetrahydro-furan-2-yl)-9H-purin-2-yl]-prop-2-ynyl}-piperidine-1-carboxylic acid methyl ester]
- protection from contusive injury in Rag1 KO mice compared to Rag1 KO vehicle [3]: no evidence of additional protection
- protection of locomotor function in mice lacking A2ARs on BMDC cells ([4]; KO/WT chimera or global A2AR KO, FIGS. 5B, 6): not KO/WT chimera; also recorded: not protected; also recorded: completely absent
- protection of locomotor function in WT/KO chimera ([4]; WT marrow into A2AR KO recipients, FIGS. 5C, 6, 7): greatest protection
- protection of locomotor function in mice with A2ARs on BMDC cells ([4]; WT, WT/WT and WT/KO mice, FIGS. 5, 6): protects WT/WT; also recorded: protected
- selectivity for the mouse A2A over the A3 receptor [2]: 12 fold
- Ki [2]: 1.58 ± 0.48 nM
- A3/A2A [2]: 12.2
- affinity and selectivity for human A2A receptor over other adenosine receptor subtypes [5]: highly selective
- morphological manifestations of long-term spinal cord injury (H&E, EC) ([6]; 6 nmol/kg, day 42, FIG. 3): substantially reversed
- spared myelin (EC-stained area, normalized to sham/uninjured) ([6]; 6 nmol/kg, day 42 after compression, vehicle 61.0%±3.6%): 81.9±0.9%
- average ratio of spinal cord white area (injured/sham) ([6]; day 42, N=3-4, P<0.05, vehicle 61.3±3.6): 81.9±0.9
- protection from spinal cord compression injury (mBBB) ([7]; 2 nmol/kg IP, FIG. 2A): no significant protection
- protection from compression injury with delayed treatment ([7]; 3 nmol/kg IP, delay 0, 5 or 20 min after SCI, two-way ANOVA, FIG. 9): significant
- locomotor protection by agonist combined with antagonist ([7]; 6 nmol/kg ATL313 with equimolar ZM241385, FIG. 2D): Early blockade; also recorded: completely blocked
- protection when treatment starts just after compression (onset of reperfusion) ([7]; 6 nmol/kg IP 10-15 seconds after terminating compression, compared with start before compression, FIG. 8): reduces locomotor dysfunction; also recorded: equal protection; also recorded: same reduction in SCI
- mBBB score ([7]; 6 nmol/kg, day 42 after compression, same animals as myelin analysis, vehicle 5.0±1.4, FIG. 4): 11.3±0.8
- optimal dose to reduce SCI (mBBB locomotor score) ([7]; IP twice daily for 4 days during and following compression, FIG. 2A): 6 nmol/kg
- reversal of protection by delay of administration ([7]; delay 20 minutes, FIG. 9 legend): partially
- protection from spinal cord compression injury (mBBB) ([7]; dose increased from 6 to 20 nmol/kg IP, FIG. 2A): does not produce additional protection
- locomotor function (mBBB score) after spinal cord compression ([7]; 6 nmol/kg): significant and sustained increase; also recorded: improved locomotor function at all time points
- Ki [1]: 19.3 ± 3.3 nM

SMILES: CCNC(=O)[C@H]1O[C@@H](n2cnc3c(N)nc(NCCc4ccc(CCC(=O)O)cc4)nc32)[C@H](O)[C@@H]1O [CGS21680, 2-[4-(2-carboxyethyl)phenethylamino]-5′-N-ethylcarboxamido-adenosine, reference compound]
- Ki [1]: 160 ± 20 nM

SMILES: Nc1nc(NCCc2ccc(O)cc2)nc2nc(-c3ccco3)nn12 [ZM241385, 4-(2-[7-Amino-2-[2-furyl][1,2,4]triazolo[2,3-a][1,3,5]triazin-5-yl-amino]ethyl)phenol, reference compound]
- protection from contusive injury in Rag1 KO mice compared to Rag1 KO vehicle [3]: did not significantly improve protection
- protection from contusive injury in Rag1 KO mice compared to vehicle ([3]; Rag1 KO mice, compared to vehicle controls, P=0.0015): significant protection
- reduction of compressive injury with delayed antagonist treatment ([7]; 6 nol/kg IP twice daily for 4 days after delay of 1, 3, 5 or 7 days, FIG. 10): Protection is maintained; also recorded: significant compared to vehicle for all delay periods
- locomotor function (mBBB score) after spinal cord compression ([7]; 6 nmol/kg): improvement in locomotor function that was similar to the effect of the agonist
- Ki [1]: 16100 nM
